One assay addresses Gpt (Escherichia coli, UniProt P0A9M5). Further details: method as in ref 29-32 (Table S1 refs 1, 2). To be noted: ref 29-32 (Table S1 refs 1, 2); cited from earlier work.
The target in a further assay is LdcC. Further details: method as in Table S1 (19). To be noted: ref Table S1 (19); cited from earlier work.
Assay [1] addresses SaRF3 (PrfC from S. aureus) (Staphylococcus aureus, UniProt A6QFN0). Kind of assay: DRaCALA binding, SaRF3. To be noted: 12 µM protein.
The target of another assay is ObgE (Escherichia coli, UniProt P42641). The arrangement: method as in Table S1 (7). To be noted: ref Table S1 (7); cited from earlier work.
ObgE, sequence (P42641 whole entry): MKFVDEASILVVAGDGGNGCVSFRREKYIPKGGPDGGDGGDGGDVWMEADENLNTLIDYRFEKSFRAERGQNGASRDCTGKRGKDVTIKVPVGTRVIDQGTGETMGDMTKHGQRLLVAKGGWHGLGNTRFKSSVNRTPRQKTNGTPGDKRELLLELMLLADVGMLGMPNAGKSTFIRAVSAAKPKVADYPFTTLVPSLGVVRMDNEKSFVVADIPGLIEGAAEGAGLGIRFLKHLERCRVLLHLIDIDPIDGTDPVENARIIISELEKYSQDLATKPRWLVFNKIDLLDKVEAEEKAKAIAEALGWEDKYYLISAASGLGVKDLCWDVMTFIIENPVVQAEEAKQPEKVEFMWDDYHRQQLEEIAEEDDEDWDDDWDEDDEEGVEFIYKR
The next assay concerns the target Hpt (Escherichia coli, UniProt P0A9M2). Further details: method as in ref 29-32 (Table S1 refs 1, 2). To be noted: ref 29-32 (Table S1 refs 1, 2); cited from earlier work.
The target in the next assay is EF-G. The arrangement: method as in Table S1 (9). To be noted: ref Table S1 (9), cited from earlier work.
The next assay has as its target SpeC. The arrangement: method as in Table S1 (19). To be noted: ref Table S1 (19); cited from earlier work.
A further assay has as its system GppA. The arrangement: method as in Table S1 (17). To be noted: ref Table S1 (17); cited from earlier work.

SMILES strings stand for the structures. Several values for one entry are separate records, joined by “and”; a condition that tells them apart may be missing. Identical values can stand only once. Entries after “also recorded” stand apart in the source; their conditions may differ. Like-named read-outs stand apart in the source and are kept apart here.

SaRF3 (PrfC from S. aureus), sequence (A6QFN0 whole entry): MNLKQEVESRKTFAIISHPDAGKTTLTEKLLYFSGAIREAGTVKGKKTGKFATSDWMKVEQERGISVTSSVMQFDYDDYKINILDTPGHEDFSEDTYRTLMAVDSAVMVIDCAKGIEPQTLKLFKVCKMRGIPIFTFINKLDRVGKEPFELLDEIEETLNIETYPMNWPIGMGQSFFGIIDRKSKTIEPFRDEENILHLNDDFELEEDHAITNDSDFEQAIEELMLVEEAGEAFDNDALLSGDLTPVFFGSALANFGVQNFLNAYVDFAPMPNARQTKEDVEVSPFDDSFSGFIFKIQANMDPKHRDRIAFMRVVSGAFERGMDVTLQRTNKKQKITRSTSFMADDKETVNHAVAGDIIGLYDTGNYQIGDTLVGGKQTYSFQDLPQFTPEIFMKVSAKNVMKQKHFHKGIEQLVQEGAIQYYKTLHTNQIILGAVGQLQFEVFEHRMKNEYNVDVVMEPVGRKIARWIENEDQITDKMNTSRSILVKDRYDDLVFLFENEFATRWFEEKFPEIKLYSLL
Hpt, sequence (P0A9M2 whole entry): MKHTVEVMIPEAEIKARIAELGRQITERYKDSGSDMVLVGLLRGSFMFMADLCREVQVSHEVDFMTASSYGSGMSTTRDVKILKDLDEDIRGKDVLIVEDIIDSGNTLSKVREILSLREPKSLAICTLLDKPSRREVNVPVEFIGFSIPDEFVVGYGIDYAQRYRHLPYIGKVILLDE
Gpt, sequence (P0A9M5 whole entry): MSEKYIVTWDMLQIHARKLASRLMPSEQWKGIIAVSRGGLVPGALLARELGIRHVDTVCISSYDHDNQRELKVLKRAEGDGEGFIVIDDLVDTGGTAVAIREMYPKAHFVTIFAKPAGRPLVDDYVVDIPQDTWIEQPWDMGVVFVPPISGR

Take `Nc1nc2c(ncn2[C@@H]2O[C@H](COP(=O)(O)OP(=O)(O)O)[C@@H](OP(=O)(O)OP(=O)(O)O)[C@H]2O)c(=O)[nH]1` [ppGpp, guanosine tetraphosphate]: the IC50 on Gpt is ~85 µM and 85 µM; at Hpt, ~85 µM and 85 µM. Also, the Kd is 0.1 to 0.5 µM on LdcC and 0.598 ± 0.068 µM at SpeC. The “binding to SaRF3” value in assay [1] is on record as “very weak binding (if any); also recorded: No binding of ppGpp by 12 µM of PrfC from S. aureus”. The Ki is 1.6 µM on ObgE, 0.7 µM on EF-G (in the absence of EF-Ts) and 40 µM at EF-G (in the presence of EF-Ts).
With `Nc1nc2c(ncn2[C@@H]2O[C@H](COP(=O)(O)OP(=O)(O)OP(=O)(O)O)[C@@H](OP(=O)(O)OP(=O)(O)O)[C@H]2O)c(=O)[nH]1` [pppGpp, guanosine pentaphosphate], the “conversion by GppA” value with GppA is “Convert pppGpp to ppGpp; (17)”.

As a reminder, the IC50 is the concentration needed to halve the response being measured. Broadly, the Kd is the equilibrium constant for the complex coming apart. Broadly, the Ki is the equilibrium dissociation constant of an inhibitor or competing ligand from its target.

Values taken from article PMC5845004, “Novel (p)ppGpp Binding and Metabolizing Proteins of Escherichia coli” (mBio, 2018).
